Reference: patent US20070128217A1 (priority 2003, published 2007)

Legend:
[1] = system: control sera (pooled serum of ten healthy LUMC hospital workers; commercial negative donor pooled serum from the Dutch bloodbank); format: binding, human; parameters: Binding of Control serum LUMC to linear peptides / Binding of Control serum Blood-bank to linear peptides / Binding of Control serum LUMC to looped peptides / Binding of Control Serum Blood-Bank to Looped peptides / Binding of Control serum LUMC to linear peptides of the protein M of SARS-CoV Urbani / Binding of Control serum Blood-bank to linear peptides of the protein M of SARS-CoV Urbani / Binding of Control serum LUMC to looped peptides of the protein M of SARS-CoV Urbani / Binding of Control Serum Blood-Bank to Looped peptides of the protein M of SARS-CoV Urbani: unit not given here
[2] = system: antibodies in sera from SARS patients (sera 1a, 1b, 2, 6, 37, 62, London, SARS-yellow, SARS-green); format: binding, human; parameters: Binding of serum 6 to linear peptides of protein X1 of SARS-CoV Urbani / Binding of serum 37 to linear peptides of protein X1 of SARS-CoV Urbani / Binding of serum 6 to looped/cyclic peptide (PEPSCAN-ELISA) / Binding of serum 37 to looped/cyclic peptide (PEPSCAN-ELISA) / Binding of serum 37 to looped/cyclic peptides of protein X1 of SARS-CoV Urbani / Binding of serum 6 to linear peptides of protein X2 / Binding of serum 37 to linear peptides of protein X2 / Binding of serum 37 to looped/cyclic peptides of protein X2 of SARS-CoV Urbani / Binding of serum 6 to linear peptides of protein M of SARS-CoV Urbani / Binding of serum 37 to linear peptides of protein M of SARS-CoV Urbani / Binding of serum 6 to looped/cyclic peptides of protein M of SARS-CoV Urbani / Binding of serum 37 to looped/cyclic peptides of protein M of SARS-CoV Urbani / Binding of serum 6 to linear peptides of protein X3 of SARS-CoV Urbani / Binding of serum 37 to linear peptides of protein X3 of SARS-CoV Urbani / Binding of serum 37 to looped/cyclic peptides of protein X3 of SARS-CoV Urbani / Binding of serum 6 to linear peptides of protein X4 of SARS-CoV Urbani / Binding of serum 37 to linear peptides of protein X4 of SARS-CoV Urbani / Binding of serum 37 to looped/cyclic peptides of protein X4 of SARS-CoV Urbani / Binding of serum 6 to linear peptides of protein X5 of SARS-CoV Urbani / Binding of serum 37 to linear peptides of protein X5 of SARS-CoV Urbani / Binding of serum 37 to looped/cyclic peptides of protein X5 of SARS-CoV Urbani / Binding of serum 6 to linear peptides of protein N of SARS-CoV Urbani / Binding of serum 37 to linear peptides of protein N of SARS-CoV Urbani / Binding of serum 6 to linear peptide (PEPSCAN-ELISA) / Binding of serum 1a to looped/cyclic peptides of protein N of SARS-CoV Urbani / Binding of serum 1b to looped/cyclic peptides of protein N of SARS-CoV Urbani / Binding of serum 2 to looped/cyclic peptides of protein N of SARS-CoV Urbani / Binding of serum 6 to looped/cyclic peptides of protein N of SARS-CoV Urbani / Binding of serum 37 to looped/cyclic peptides of protein N of SARS-CoV Urbani / Binding of serum 62 to looped/cyclic peptides of protein N of SARS-CoV Urbani / Binding of serum London to looped/cyclic peptides of protein N of SARS-CoV Urbani / Binding of serum SARS-green to looped/cyclic peptides of protein N of SARS-CoV Urbani: unit not given here
[3] = system: rabbit serum obtained by immunizing a rabbit with the SARS-CoV strain Frankfurt 1; format: binding; parameters: Binding of a rabbit serum to linear peptides / Binding of a rabbit serum to looped peptides / Rabbit serum linear peptides / Rabbit serum looped peptides / Binding of a rabbit serum to linear peptides of protein N of SARS-CoV Urbani (Rabbit serum linear peptides) / Binding of a rabbit serum to looped/cyclic peptides of protein N of SARS-CoV Urbani (Rabbit serum looped peptides): unit not given here

Sequence: LFLAWIMLLQFAYSN
- Binding of Control Serum Blood-Bank to Looped peptides of the protein M of SARS-CoV Urbani [1]: 0.7
- Binding of Control serum Blood-bank to linear peptides of the protein M of SARS-CoV Urbani [1]: 0.5
- Binding of Control serum LUMC to linear peptides of the protein M of SARS-CoV Urbani [1]: 0.2
- Binding of Control serum LUMC to looped peptides of the protein M of SARS-CoV Urbani [1]: 0.6
- Binding of serum 1a to linear peptides of protein M of SARS-CoV Urbani [2]: 0.7
- Binding of serum 1a to looped/cyclic peptides of protein M of SARS-CoV Urbani [2]: 0.8
- Binding of serum 1b to linear peptides of protein M of SARS-CoV Urbani [2]: 0.5
- Binding of serum 1b to looped/cyclic peptides of protein M of SARS-CoV Urbani [2]: 0.6
- Binding of serum 2 to linear peptides of protein M of SARS-CoV Urbani [2]: 0.3
- Binding of serum 2 to looped/cyclic peptides of protein M of SARS-CoV Urbani [2]: 0.6
- Binding of serum 6 to linear peptides of protein M of SARS-CoV Urbani [2]: 0.3
- Binding of serum 6 to looped/cyclic peptides of protein M of SARS-CoV Urbani [2]: 0.7
- Binding of serum 37 to linear peptides of protein M of SARS-CoV Urbani [2]: 0.6
- Binding of serum 37 to looped/cyclic peptides of protein M of SARS-CoV Urbani [2]: 0.7
- Binding of serum 62 to linear peptides of protein M of SARS-CoV Urbani [2]: 0.7
- Binding of serum 62 to looped/cyclic peptides of protein M of SARS-CoV Urbani [2]: 0.7
- Binding of serum London to linear peptides of protein M of SARS-CoV Urbani [2]: 0.2
- Binding of serum London to looped/cyclic peptides of protein M of SARS-CoV Urbani [2]: 0.3
- Binding of serum SARS-green to linear peptides of protein M of SARS-CoV Urbani [2]: 0.2
- Binding of serum SARS-green to looped/cyclic peptides of protein M of SARS-CoV Urbani [2]: 0.3
- Binding of serum SARS-yellow to linear peptides of protein M of SARS-CoV Urbani [2]: 0.0
- Binding of serum SARS-yellow to looped/cyclic peptides of protein M of SARS-CoV Urbani [2]: 0.6
- Rabbit serum linear peptides [3]: 0.7
- Rabbit serum looped peptides [3]: 0.3

Sequence: LFMRFFTLGSITAQP
- Binding of Control Serum Blood-Bank to Looped peptides [1]: 0.7
- Binding of Control serum Blood-bank to linear peptides [1]: 0.7
- Binding of Control serum LUMC to linear peptides [1]: 0.6
- Binding of Control serum LUMC to looped peptides [1]: 0.5
- Binding of serum 1a to linear peptides of protein X1 of SARS-CoV Urbani [2]: 0.8
- Binding of serum 1a to looped/cyclic peptide (PEPSCAN-ELISA) [2]: 0.5
- Binding of serum 1b to linear peptides of protein X1 of SARS-CoV Urbani [2]: 0.7
- Binding of serum 1b to looped/cyclic peptide (PEPSCAN-ELISA) [2]: 0.3
- Binding of serum 2 to linear peptides of protein X1 of SARS-CoV Urbani [2]: 0.6
- Binding of serum 2 to looped/cyclic peptide (PEPSCAN-ELISA) [2]: 0.4
- Binding of serum 6 to linear peptides of protein X1 of SARS-CoV Urbani [2]: 0.5
- Binding of serum 6 to looped/cyclic peptide (PEPSCAN-ELISA) [2]: 0.3
- Binding of serum 37 to linear peptides of protein X1 of SARS-CoV Urbani [2]: 0.6
- Binding of serum 37 to looped/cyclic peptide (PEPSCAN-ELISA) [2]: 0.5
- Binding of serum 62 to linear peptides of protein X1 of SARS-CoV Urbani [2]: 0.6
- Binding of serum 62 to looped/cyclic peptide (PEPSCAN-ELISA) [2]: 0.5
- Binding of serum London to linear peptides of protein X1 of SARS-CoV Urbani [2]: 0.3
- Binding of serum London to looped/cyclic peptide (PEPSCAN-ELISA) [2]: 0.2
- Binding of serum SARS-green to linear peptides of protein X1 of SARS-CoV Urbani [2]: 0.2
- Binding of serum SARS-green to looped/cyclic peptide (PEPSCAN-ELISA) [2]: 0.3
- Binding of serum SARS-yellow to linear peptides of protein X1 of SARS-CoV Urbani [2]: 0.6
- Binding of serum SARS-yellow to looped/cyclic peptide (PEPSCAN-ELISA) [2]: 0.4
- Binding of a rabbit serum to linear peptides [3]: 0.5
- Binding of a rabbit serum to looped peptides [3]: 0.4

Sequence: LFVTIYSHLLLVAAG
- Binding of Control Serum Blood-Bank to Looped peptides [1]: 0.6
- Binding of Control serum Blood-bank to linear peptides [1]: 0.5
- Binding of Control serum LUMC to linear peptides [1]: 0.4
- Binding of Control serum LUMC to looped peptides [1]: 0.6
- Binding of serum 1a to linear peptides of protein X1 of SARS-CoV Urbani [2]: 0.7
- Binding of serum 1a to looped/cyclic peptide (PEPSCAN-ELISA) [2]: 0.5
- Binding of serum 1b to linear peptides of protein X1 of SARS-CoV Urbani [2]: 0.4
- Binding of serum 1b to looped/cyclic peptide (PEPSCAN-ELISA) [2]: 0.3
- Binding of serum 2 to linear peptides of protein X1 of SARS-CoV Urbani [2]: 0.6
- Binding of serum 2 to looped/cyclic peptide (PEPSCAN-ELISA) [2]: 0.4
- Binding of serum 6 to linear peptides of protein X1 of SARS-CoV Urbani [2]: 0.3
- Binding of serum 6 to looped/cyclic peptide (PEPSCAN-ELISA) [2]: 0.2
- Binding of serum 37 to linear peptides of protein X1 of SARS-CoV Urbani [2]: 0.6
- Binding of serum 37 to looped/cyclic peptide (PEPSCAN-ELISA) [2]: 0.5
- Binding of serum 62 to linear peptides of protein X1 of SARS-CoV Urbani [2]: 0.5
- Binding of serum 62 to looped/cyclic peptide (PEPSCAN-ELISA) [2]: 0.5
- Binding of serum London to linear peptides of protein X1 of SARS-CoV Urbani [2]: 0.2
- Binding of serum London to looped/cyclic peptide (PEPSCAN-ELISA) [2]: 0.2
- Binding of serum SARS-green to linear peptides of protein X1 of SARS-CoV Urbani [2]: 0.2
- Binding of serum SARS-green to looped/cyclic peptide (PEPSCAN-ELISA) [2]: 0.3
- Binding of serum SARS-yellow to linear peptides of protein X1 of SARS-CoV Urbani [2]: 0.5
- Binding of serum SARS-yellow to looped/cyclic peptide (PEPSCAN-ELISA) [2]: 0.4
- Binding of a rabbit serum to linear peptides [3]: 0.1
- Binding of a rabbit serum to looped peptides [3]: 0.6

Sequence: LIARCWYLHEGHQTA
- Binding of Control Serum Blood-Bank to Looped peptides [1]: 0.3
- Binding of Control serum Blood-bank to linear peptides [1]: 0.6
- Binding of Control serum LUMC to linear peptides [1]: 0.4
- Binding of Control serum LUMC to looped peptides [1]: 0.0
- Binding of serum 1a to linear peptides of protein X5 of SARS-CoV Urbani [2]: 0.7
- Binding of serum 1a to looped/cyclic peptides of protein X5 of SARS-CoV Urbani [2]: 0.4
- Binding of serum 1b to linear peptides of protein X5 of SARS-CoV Urbani [2]: 0.6
- Binding of serum 1b to looped/cyclic peptides of protein X5 of SARS-CoV Urbani [2]: 0.4
- Binding of serum 2 to linear peptides of protein X5 of SARS-CoV Urbani [2]: 0.6
- Binding of serum 2 to looped/cyclic peptides of protein X5 of SARS-CoV Urbani [2]: 0.2
- Binding of serum 6 to linear peptides of protein X5 of SARS-CoV Urbani [2]: 0.1
- Binding of serum 6 to looped/cyclic peptides of protein X5 of SARS-CoV Urbani [2]: 0.1
- Binding of serum 37 to linear peptides of protein X5 of SARS-CoV Urbani [2]: 0.8
- Binding of serum 37 to looped/cyclic peptides of protein X5 of SARS-CoV Urbani [2]: 0.3
- Binding of serum 62 to linear peptides of protein X5 of SARS-CoV Urbani [2]: 0.9
- Binding of serum 62 to looped/cyclic peptides of protein X5 of SARS-CoV Urbani [2]: 0.1
- Binding of serum London to linear peptides of protein X5 of SARS-CoV Urbani [2]: 0.6
- Binding of serum London to looped/cyclic peptides of protein X5 of SARS-CoV Urbani [2]: 0.0
- Binding of serum SARS-green to linear peptides of protein X5 of SARS-CoV Urbani [2]: 0.6
- Binding of serum SARS-green to looped/cyclic peptides of protein X5 of SARS-CoV Urbani [2]: 0.6
- Binding of serum SARS-yellow to linear peptides of protein X5 of SARS-CoV Urbani [2]: 0.0
- Binding of serum SARS-yellow to looped/cyclic peptides of protein X5 of SARS-CoV Urbani [2]: 0.0
- Rabbit serum linear peptides [3]: 0.8
- Rabbit serum looped peptides [3]: 0.0
